According to patent publication US20090016959A1, “Delivery of antibodies to the central nervous system” (priority 2005, published 2009):
Residues, ends and D or L forms follow the SMILES beside them.

Columns and labels:
[1] = test system: bovine brain capillary endothelial cells; experiment: In vitro BBB model, first level of selection: peptides in lower chamber visualized by Coomassie blue; assay type: in vitro ADME; conditions: first level of screening; 90 minutes at 37° C
Description: (§1) This BBCEC medium was changed three times a week.
The medium was changed twice a week.

[2] = test system: bovine brain capillary endothelial cells; experiment: In vitro BBB model, second screening level with iodinated peptides (cpm ratios); assay type: in vitro ADME
Description: as §1
Two iodo-beads were used for each protein.
Results were expressed as cpm ratios. […] The ratio between the number of [^125I]-peptide found in the bottom chamber of filters covered with or without endothelial cells was also calculated (+cells/−cells).

[3] = test system: in vitro model of the blood brain barrier; experiment: Transcytosis capacity across the in vitro BBB model (Pe); assay type: in vitro ADME, bovine
Description: as §1
Transcytosis capacity of Aprotinin-Paclitaxel conjugate was determined and is reported below in Table 5.

Ratios −cells/initial [2]	Ratios +cells/−cells ([2]; [125I]-peptide in bottom chamber of filters with versus without endothelial cells)	Ratios +cells/initial ([2]; [125I]-peptide, cpm in bottom chamber / total cpm added, filter covered with endothelial cells, 90 minutes at 37° C)	Compound	peptides detected in the lower side of the chambers by Coomassie blue staining [1]	Transcytosis (Pe 10^−3 cm/min) [3]
0.072	0.37	0.027	C[C@@H](O)[C@H](NC(=O)[C@H](CCCCN)NC(=O)[C@H](Cc1ccccc1)NC(=O)[C@H](CC(N)=O)NC(=O)[C@H](CC(N)=O)NC(=O)[C@H](CCCNC(=N)N)NC(=O)[C@H](CCCCN)NC(=O)CNC(=O)[C@H](CCCNC(=N)N)NC(=O)[C@H](CS)NC(=O)[C@H](CS)NC(=O)CNC(=O)[C@H](Cc1ccc(O)cc1)NC(=O)[C@H](Cc1ccccc1)NC(=O)[C@H](Cc1ccccc1)NC(=O)[C@@H](NC(=O)[C@@H](N)CS)[C@@H](C)O)C(=O)N[C@@H](CCC(=O)O)C(=O)N[C@@H](CCC(=O)O)C(=O)N[C@@H](Cc1ccc(O)cc1)C(=O)O [Peptide 71] (H-CTFFYGCCRGKRNNFKTEEY-OH; N-terminus and C-terminus assumed)	detected in the lower side of the chambers	
			aprotinin		0.2 10^−3 cm/min
